How the values were obtained:
[1] = target: T1, CYP1A2 (Homo sapiens, UniProt P05177); test: Cytochrome P450 isozyme inhibition, fluorescent Vivid substrate; type: in vitro ADME; conditions: 5 nM CYP1A2, 2 μM Vivid 1A2 Blue, 60 minutes
T1 sequence (P05177 1-516): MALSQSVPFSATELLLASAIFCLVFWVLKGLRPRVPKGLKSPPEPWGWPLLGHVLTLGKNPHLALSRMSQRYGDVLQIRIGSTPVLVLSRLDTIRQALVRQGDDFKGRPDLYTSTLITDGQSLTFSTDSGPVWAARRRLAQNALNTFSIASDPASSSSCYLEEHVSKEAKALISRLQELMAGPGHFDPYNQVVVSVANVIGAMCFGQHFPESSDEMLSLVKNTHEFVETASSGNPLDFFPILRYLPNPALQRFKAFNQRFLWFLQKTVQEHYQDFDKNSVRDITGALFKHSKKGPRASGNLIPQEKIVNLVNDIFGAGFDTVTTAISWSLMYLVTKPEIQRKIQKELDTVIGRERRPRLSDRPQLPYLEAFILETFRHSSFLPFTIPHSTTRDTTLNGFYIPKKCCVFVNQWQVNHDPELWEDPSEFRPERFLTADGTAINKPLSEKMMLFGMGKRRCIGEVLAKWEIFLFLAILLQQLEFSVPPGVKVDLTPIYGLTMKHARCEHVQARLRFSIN
Description: (§1) Selected compounds of the invention were assayed for their ability to inhibit various cytochrome P450 isozymes, such as, for example CYP2D6, CYP2C9, CYP1A2, CYP2C19, CYP3A4, CYP2C9, and CYP3A4 (human liver microsome). Such assays are described by Crespi et al., Anal. Biochem. 248:188-90, 1997; Ekins et al., J. Pharmacol. Exp. Ther. 290, 429-38, 1999; and Ekins et al., J. Pharmacol. Exp. Ther. 291, 424-33, 1999. In a typical isozyme inhibition experiment, test compounds are placed into a microwell on a microtiter plate as an 8 nL solution (2 mM in 75% DMSO/water). The plate is centrifuged for 2 minutes at approximately 1000 rpm to shift the compound to the bottom of the well. Polyvinylpyrrolidone (PVP/10K, 100 nL, 0.2% in 75% DMSO/water) is added to the well and this excipient also centrifuged for 2 minutes at approximately 1000 rpm to ensure mixing with the compound. The plates containing the wells are dried in vacuo. Distilled water (800 nL) is added to the wells containing compound, the background control wells, and the positive control wells, followed by the addition of 200 nL of phosphate buffer (500 mM potassium phosphate butter at pH=8.4). The positive control cells contain a drug such as, for example, miconazole. Insect baculosomes (PanVera P2315) in […] phosphate buffer was added to the background control wells and the plate was scanned for compound fluorescence. […] Therefore, CYP450 isozyme (400 nL) and recycling buffer (3.3 mM glucose-6-phosphate, 0.4 units/mL glucose-6-phosphate dehydrogenase, 100 mM MgCl2, and 0.00025% Antifoam 289) in 100 mM phosphate buffer was added to each well containing compound and background control to obtain the following concentrations: 5 nM CYP3A4, 10 nM CYP2C9, 5 nM CYP1A2, 5 nM CYP2C19, and 20 nM CYP2D6. After incubation for 60 minutes, the wells were read with a fluorescent plate reader.

[2] = target: CYP2D6 (Homo sapiens, UniProt P10635); test: as above; type: in vitro ADME; conditions: 20 nM CYP2D6, 10 μM Vivid 2D6 Blue, 60 minutes
Description: as §1

[3] = target: CYP2C9 (Homo sapiens, UniProt P11712); test: as above; type: in vitro ADME; conditions: 10 nM CYP2C9, 1 μM Vivid 2C9 Green, 60 minutes
Description: as §1

[4] = target: CYP2C19 (Homo sapiens, UniProt P33261); test: as above; type: in vitro ADME; conditions: 5 nM CYP2C19, 10 μM Vivid 2C19 Blue, 60 minutes
Description: as §1

[5] = target: T2, CYP3A4 (human liver microsome) (Homo sapiens, UniProt P08684); test: Cytochrome P450 inhibition, human liver microsome; type: in vitro ADME; conditions: read-out: CYP3A4 (HLM) Ki
T2 construct: CYP3A4 (human liver microsome); from tissue; host or cells: human liver microsomes
Description: (§2) Selected compounds of the invention were assayed for their ability to inhibit various cytochrome P450 isozymes, such as, for example CYP2D6, CYP2C9, CYP1A2, CYP2C19, CYP3A4, CYP2C9, and CYP3A4 (human liver microsome). Such assays are described by Crespi et al., Anal. Biochem. 248:188-90, 1997; Ekins et al., J. Pharmacol. Exp. Ther. 290, 429-38, 1999; and Ekins et al., J. Pharmacol. Exp. Ther. 291, 424-33, 1999. […] The plate is centrifuged for 2 minutes at approximately 1000 rpm to shift the compound to the bottom of the well. […] Distilled water (800 nL) is added to the wells containing compound, the background control wells, and the positive control wells, followed by the addition of 200 nL of phosphate buffer (500 mM potassium phosphate butter at pH=8.4). The positive control cells contain a drug such as, for example, miconazole. […] After incubation for 60 minutes, the wells were read with a fluorescent plate reader.

[6] = target: CYP3A4 (Homo sapiens, UniProt P08684); test: Cytochrome P450 isozyme inhibition, fluorescent Vivid substrate; type: in vitro ADME; conditions: 5 nM CYP3A4, 5 μM Vivid 3A4 Red, 60 minutes
Description: as §2, with “miconazole. Insect baculosomes (PanVera […]) in […] phosphate buffer was added to the background control wells and the plate was scanned for compound fluorescence.” for “miconazole.”

[7] = target: T3, ROCK I (AA 6-553) (Homo sapiens, UniProt Q13464); test: ROCK inhibition assay, standard coupled enzyme system; type: biochemical; conditions: 45 nM ROCK I, 45 μM ATP, 200 μM peptide, 30° C.
T3 construct: ROCK I (AA 6-553)
Description: Reactions were carried out in a solution containing 100 mM HEPES (pH 7.5), 10 mM MgCl2, 25 mM NaCl, 2 mM DTT and 1.5% DMSO.

T2 sequence (P08684 whole entry): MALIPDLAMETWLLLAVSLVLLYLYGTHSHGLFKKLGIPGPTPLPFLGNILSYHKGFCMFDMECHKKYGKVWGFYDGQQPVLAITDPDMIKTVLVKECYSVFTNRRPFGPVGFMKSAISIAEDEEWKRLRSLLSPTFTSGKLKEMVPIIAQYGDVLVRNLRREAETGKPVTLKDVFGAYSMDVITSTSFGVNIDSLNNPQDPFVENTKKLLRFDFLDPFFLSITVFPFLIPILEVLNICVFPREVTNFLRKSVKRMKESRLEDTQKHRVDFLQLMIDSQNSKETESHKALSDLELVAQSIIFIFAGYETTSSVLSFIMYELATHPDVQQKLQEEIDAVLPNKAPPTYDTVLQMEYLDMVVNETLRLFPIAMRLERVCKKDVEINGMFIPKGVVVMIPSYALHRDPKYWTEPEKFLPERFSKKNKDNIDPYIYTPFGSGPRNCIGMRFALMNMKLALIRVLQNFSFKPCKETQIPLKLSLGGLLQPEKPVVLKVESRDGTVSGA
CYP3A4, sequence (P08684 whole entry): as above
T3 sequence (Q13464 6-553, species assumed): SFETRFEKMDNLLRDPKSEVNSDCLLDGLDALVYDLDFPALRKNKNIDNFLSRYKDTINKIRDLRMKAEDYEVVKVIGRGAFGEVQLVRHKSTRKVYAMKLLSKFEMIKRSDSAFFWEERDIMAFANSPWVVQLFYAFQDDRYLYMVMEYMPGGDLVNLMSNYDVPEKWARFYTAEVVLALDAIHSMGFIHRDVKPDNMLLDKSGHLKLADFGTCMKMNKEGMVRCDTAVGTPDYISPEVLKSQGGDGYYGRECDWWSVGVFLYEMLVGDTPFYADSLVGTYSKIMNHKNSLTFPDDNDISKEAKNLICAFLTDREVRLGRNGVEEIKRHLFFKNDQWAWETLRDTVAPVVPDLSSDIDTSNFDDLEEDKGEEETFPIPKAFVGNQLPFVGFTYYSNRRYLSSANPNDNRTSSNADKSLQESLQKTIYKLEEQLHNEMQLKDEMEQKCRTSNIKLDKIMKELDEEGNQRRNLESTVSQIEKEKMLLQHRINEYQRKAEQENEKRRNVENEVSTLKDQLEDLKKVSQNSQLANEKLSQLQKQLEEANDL
CYP2C19, sequence (P33261 whole entry): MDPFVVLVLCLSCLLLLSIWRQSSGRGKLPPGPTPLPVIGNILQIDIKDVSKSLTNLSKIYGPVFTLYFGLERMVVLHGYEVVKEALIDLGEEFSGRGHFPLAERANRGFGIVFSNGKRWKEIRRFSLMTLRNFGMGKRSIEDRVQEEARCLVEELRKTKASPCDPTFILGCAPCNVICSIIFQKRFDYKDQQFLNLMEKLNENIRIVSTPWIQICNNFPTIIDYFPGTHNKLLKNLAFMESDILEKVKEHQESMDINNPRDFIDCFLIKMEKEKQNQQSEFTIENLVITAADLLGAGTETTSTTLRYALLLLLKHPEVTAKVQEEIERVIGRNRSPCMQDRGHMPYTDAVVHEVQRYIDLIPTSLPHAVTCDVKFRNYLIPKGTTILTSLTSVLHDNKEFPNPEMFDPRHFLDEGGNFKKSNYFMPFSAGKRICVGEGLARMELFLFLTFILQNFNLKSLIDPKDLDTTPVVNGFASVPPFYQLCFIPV
CYP2C9, sequence (P11712 whole entry): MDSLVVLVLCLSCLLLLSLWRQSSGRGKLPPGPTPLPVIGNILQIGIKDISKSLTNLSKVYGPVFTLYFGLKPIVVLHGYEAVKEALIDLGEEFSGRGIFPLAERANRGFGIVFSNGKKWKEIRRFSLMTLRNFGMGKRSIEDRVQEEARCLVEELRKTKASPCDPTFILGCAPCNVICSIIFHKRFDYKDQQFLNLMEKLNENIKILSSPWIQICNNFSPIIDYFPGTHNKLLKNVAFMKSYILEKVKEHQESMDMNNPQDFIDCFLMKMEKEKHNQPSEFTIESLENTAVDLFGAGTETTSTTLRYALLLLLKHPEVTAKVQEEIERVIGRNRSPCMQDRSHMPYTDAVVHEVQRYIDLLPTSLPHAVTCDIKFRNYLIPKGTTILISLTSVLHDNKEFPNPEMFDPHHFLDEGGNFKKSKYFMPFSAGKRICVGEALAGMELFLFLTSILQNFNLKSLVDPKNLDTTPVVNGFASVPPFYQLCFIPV
CYP2D6, sequence (P10635 whole entry): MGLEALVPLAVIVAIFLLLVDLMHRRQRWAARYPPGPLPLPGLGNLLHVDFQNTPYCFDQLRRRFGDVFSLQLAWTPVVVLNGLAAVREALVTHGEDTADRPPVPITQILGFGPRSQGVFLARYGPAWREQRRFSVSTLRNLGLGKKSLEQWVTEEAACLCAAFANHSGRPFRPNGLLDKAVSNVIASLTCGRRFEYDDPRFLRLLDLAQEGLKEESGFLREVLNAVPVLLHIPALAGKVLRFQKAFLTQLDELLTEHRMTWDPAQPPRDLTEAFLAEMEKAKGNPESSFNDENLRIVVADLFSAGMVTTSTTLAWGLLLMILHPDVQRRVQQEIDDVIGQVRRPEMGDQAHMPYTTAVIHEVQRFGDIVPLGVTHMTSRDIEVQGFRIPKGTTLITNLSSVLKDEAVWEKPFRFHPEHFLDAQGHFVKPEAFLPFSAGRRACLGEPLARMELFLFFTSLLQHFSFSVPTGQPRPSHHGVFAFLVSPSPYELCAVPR

Ki [1] [µM] | Ki [2] [µM] | Ki [3] [µM] | Ki [4] [µM] | Ki [5] [µM] | Ki [6] [µM] | Ki [7] [µM] | SMILES
> 10 | > 10 | 1 to 10 | 1 to 10 |  |  |  | COc1cccc(CC(=O)Nc2cc(-c3ccnc(F)c3)cs2)c1 [Compound 61]
> 10 |  | 1 to 10 |  |  |  |  | COc1cccc(CC(=O)Nc2cc(-c3ccnc(Cl)c3)cs2)c1 [Compound 62]
1 to 10 | 1 to 10 | 1 to 10 | > 10 |  |  |  | COc1cccc(CC(=O)Nc2cc(-c3ccnc(N)c3)cs2)c1 [Compound 64, N-(4-(2-aminopyridin-4-yl)thiophen-2-yl)-2-(3-methoxyphenyl)acetamide]
> 10 | 1 to 10 |  | 1 to 10 | > 10 | 1 to 10 | < 0.1 | O=C(Cc1cccc(OCCCC2CCNCC2)c1)Nc1cc(-c2ccnc(F)c2)cs1 [Compound 72]
> 10 | > 10 | > 10 |  | > 10 | > 10 | < 0.1 | CN1CCN(CCOc2cccc(CC(=O)Nc3cc(-c4ccnc(F)c4)cs3)c2)CC1 [Compound 73]
> 10 | > 10 | > 10 | > 10 | > 10 | > 10 | < 0.1 | CN1CCN(CCCOc2cccc(CC(=O)Nc3cc(-c4ccnc(F)c4)cs3)c2)CC1 [Compound 74]
> 10 | < 1 | 1 to 10 | 1 to 10 | 1 to 10 | 1 to 10 | < 0.1 | Nc1cc(-c2csc(NC(=O)Cc3cccc(OCCCC4CCNCC4)c3)c2)ccn1 [Compound 77]
> 10 | > 10 | 1 to 10 | 1 to 10 | 1 to 10 | 1 to 10 | 0.1 to 1 | COc1cccc(CC(=O)Nc2cc(-c3ccnc(C)c3)cs2)c1 [Compound 80]
> 10 | > 10 | > 10 | 1 to 10 | > 10 | > 10 | < 0.1 | Cc1cc(-c2csc(NC(=O)Cc3cccc(O)c3)c2)ccn1 [Compound 85]
> 10 |  | > 10 | 1 to 10 | > 10 | > 10 | < 0.1 | Cc1cc(-c2csc(NC(=O)Cc3cccc(OCCCN4CCNCC4)c3)c2)ccn1 [Compound 89]
> 10 |  | > 10 |  | > 10 | > 10 | 0.1 to 1 | Cc1cc(-c2csc(NC(=O)Cc3cccc(OCCCN4CCN(C)CC4)c3)c2)ccn1 [Compound 90]
> 10 |  | > 10 | > 10 | > 10 | > 10 | 0.1 to 1 | Cc1cc(-c2csc(NC(=O)Cc3cccc(OCCN4CCNCC4)c3)c2)ccn1 [Compound 92]
> 10 |  | > 10 | > 10 | > 10 | > 10 | 0.1 to 1 | Cc1cc(-c2csc(NC(=O)Cc3cccc(OCCN4CCN(C)CC4)c3)c2)ccn1 [Compound 93]
> 10 |  | > 10 | > 10 | > 10 | > 10 | > 1 | Cc1cc(-c2csc(NC(=O)Cc3cccc(OCCN4CCCCC4)c3)c2)ccn1 [Compound 94]
1 to 10 |  | 1 to 10 | 1 to 10 | 1 to 10 | 1 to 10 | < 0.1 | O=C(Cc1cccc(O)c1)Nc1cc(-c2ccnc(Cl)c2)cs1 [Compound 101]
> 10 | > 10 | > 10 | 1 to 10 | > 10 | 1 to 10 | < 0.1 | O=C(Cc1cccc(OCCCN2CCNCC2)c1)Nc1cc(-c2ccnc(Cl)c2)cs1 [Compound 102]
> 10 | > 10 | > 10 | > 10 | > 10 | > 10 | < 0.1 | CN1CCN(CCCOc2cccc(CC(=O)Nc3cc(-c4ccnc(Cl)c4)cs3)c2)CC1 [Compound 103]
1 to 10 | < 1 | 1 to 10 | < 1 | 1 to 10 | 1 to 10 | < 0.1 | O=C(Cc1cc2c(cc1Cl)OCO2)Nc1cc(-c2ccnc(Cl)c2)cs1 [Compound 105]

From US8278306B2 (Vertex Pharmaceuticals Incorporated, priority 2006, dated 2012)
